Drawing on ChEMBL document CHEMBL1158864, “Pyrrolizidine Alkaloids from Senecio r oseus and Senecio h elodes” (J Nat Prod, 1997), this text covers Activity and LC50 for 5 molecules.

SMILES strings stand for the structures. Activity calls are given as the source filed them. The rule behind the calls is not given here.

The subject of data set [1] is Aspergillus niger. The data set can be described thus: Antimicrobial activity against Aspergillus niger. It counts as functional, organism-based.
For data set [2], the system named is Escherichia coli. The data set is described as follows: Antimicrobial activity against Escherichia coli ATCC 10536. It counts as functional, organism-based.
Data set [3] concerns Trichoderma viride. The data set can be described thus: Antimicrobial activity against Trichoderma viride. It counts as functional, organism-based.
Data set [4] in a line: (§1) Toxicity against Artemia salina. It counts as organism-based. The following applies: in vivo.
The test system of data set [5] is Artemia salina. The description is as §1. It counts as organism-based. The following applies: in vivo.

On to `C[C@@H]1C[C@]2(C)CC(=O)O[C@@H]3CCN4CC=C(COC(=O)[C@@]1(C)O2)[C@H]34`, for which the result in data set [1], in data set [2] and in data set [3] was inactive.

Take `C[C@@H]1C[C@]2(C)CC(=O)O[C@@H]3CCN4CC[C@H](COC(=O)[C@@]1(C)O2)[C@H]34` [MULGEDIIFOLINE]: the result in data set [1], in data set [2] and in data set [3] was inactive. Further, in data set [4], the LC50 was above 300 µg/mL.

Take `C[C@@H]1[C@@H](O)[C@]2(C)CC(=O)O[C@@H]3CCN4CC=C(COC(=O)[C@@]1(C)O2)[C@H]34`: the outcome in data set [1], in data set [2] and in data set [3] was inactive. Also, the median lethal concentration (LC50) in data set [4] is above 300 µg/mL.

Molecule `C[C@@H]1C[C@]2(C)CC(=O)O[C@@H]3CCN4CC=C(COC(=O)[C@@]1(C)O2)[C@H]34` [RETROISOSENINE HYDRCHLORIDE] showed an LC50 in data set [4] above 300 µg/mL.

`C[C@@H]1C[C@]2(C)CC(=O)O[C@@H]3CCN4CC=C(COC(=O)[C@@]1(C)O2)[C@H]34` [RETROISOSENINE]: in data set [5], the median lethal concentration (LC50) is above 300 µg/mL.

A word on the LC50: it is the concentration lethal to half of the exposed cells or organisms. The low end stands for greater toxicity, the high end for lower toxicity.
